This note sets out measurements from patent US20260274807A1 (University of Health Sciences and Pharmacy in St. Louis, priority 2023, published 2026).

Structures are written as SMILES. Where only a bound is given, the exact number is not on record here.

The target in assay [1] is T1, ERRα (Homo sapiens, UniProt P11474).
T1 construct: expressed in transfected cells; host or cells: HEK293
T1 sequence (P11474 1-423): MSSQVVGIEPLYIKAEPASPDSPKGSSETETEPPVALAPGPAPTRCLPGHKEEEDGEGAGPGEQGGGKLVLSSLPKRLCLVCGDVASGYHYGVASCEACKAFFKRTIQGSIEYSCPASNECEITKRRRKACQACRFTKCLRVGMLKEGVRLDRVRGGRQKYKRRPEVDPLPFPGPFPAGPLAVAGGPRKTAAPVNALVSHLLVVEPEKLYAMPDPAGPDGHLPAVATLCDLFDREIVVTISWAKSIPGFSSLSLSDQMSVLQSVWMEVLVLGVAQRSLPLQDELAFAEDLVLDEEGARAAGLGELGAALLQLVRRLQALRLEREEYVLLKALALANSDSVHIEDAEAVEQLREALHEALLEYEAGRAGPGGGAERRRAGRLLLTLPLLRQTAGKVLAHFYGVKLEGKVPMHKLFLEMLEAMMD
Briefly: ERRE luciferase reporter assay in HEK293 cells transfected with pcDNA3.1 ERRα. Format: cell-based. Particulars: HEK293 cells transfected with ERRE reporter construct and pcDNA3.1 ERRα; compound for 24 hours; luciferase activity. More on the design: key to EC50 (ERRα) μM: * <1 μM; ** 1-5 μM; *** >5 μM; i.a. (inactive). The procedure: (§1) HEK293 cells were maintained in Dulbecco's modified Eagles medium (DMEM) supplemented with 10% fetal bovine serum at 37° C. under […]. […] Cells were transfected with ERRE reporter construct and pcDNA3.1 ERRα or ERRγ. Twenty-four-hours post-transfection, the cells were treated with vehicle or compound (various concentrations) for 24 hours (4 wells per dose). Luciferase activity was measured using the One-Glo Tox luciferase reporter assay system (Promega) and EC50s were calculated using GraphPad Prism software.

Assay [2] addresses T2, ERRγ (Homo sapiens, UniProt P62508).
T2 construct: expressed in transfected cells; host or cells: HEK293
T2 sequence (P62508 1-458): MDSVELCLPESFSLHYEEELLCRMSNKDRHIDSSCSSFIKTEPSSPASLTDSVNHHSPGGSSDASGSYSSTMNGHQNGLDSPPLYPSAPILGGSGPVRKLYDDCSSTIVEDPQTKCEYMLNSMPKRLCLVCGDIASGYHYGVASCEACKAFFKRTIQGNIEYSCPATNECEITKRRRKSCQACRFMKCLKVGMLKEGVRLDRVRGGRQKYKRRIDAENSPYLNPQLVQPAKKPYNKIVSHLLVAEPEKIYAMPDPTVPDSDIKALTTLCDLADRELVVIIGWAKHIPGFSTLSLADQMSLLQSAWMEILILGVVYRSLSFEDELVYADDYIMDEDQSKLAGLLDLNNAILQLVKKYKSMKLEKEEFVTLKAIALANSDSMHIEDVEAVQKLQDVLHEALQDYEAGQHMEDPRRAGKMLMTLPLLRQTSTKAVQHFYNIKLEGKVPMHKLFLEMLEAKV
Briefly: ERRE luciferase reporter assay in HEK293 cells transfected with pcDNA3.1 ERRγ. Format: cell-based. Also noted: key to EC50 (ERRγ) μM: * <1 μM; ** 1-5 μM; *** >5 μM; i.a. (inactive). Particulars: HEK293 cells transfected with ERRE reporter construct and pcDNA3.1 ERRγ; compound for 24 hours; luciferase activity. The procedure:
as §1

With `Cc1ccc(-c2nnc(-c3ccc([N+](=O)[O-])cc3)o2)cc1` [Entry 39, 2-(4-nitrophenyl)-5-(p-tolyl)-1,3,4-oxadiazole], the EC50 in assay [1] and in assay [2] was less than 1000 nM each time.

`Cc1ccc(-c2nnc(-c3ccccc3Cl)o2)cc1` [Entry 40, 2-(2-chlorophenyl)-5-(p-tolyl)-1,3,4-oxadiazole]: the EC50 in assay [1] and in assay [2] was less than 1000 nM throughout.

`COc1cccc(-c2nnc(-c3ccc(C)cc3)o2)c1` [Entry 41, 2-(3-methoxyphenyl)-5-(p-tolyl)-1,3,4-oxadiazole]: the half-maximal effective concentration (EC50) in assay [1] and in assay [2] was less than 1000 nM in each case.

For `COc1ccc(-c2nnc(-c3ccc(C)cc3)o2)cc1` [Entry 42, 2-(4-methoxyphenyl)-5-(p-tolyl)-1,3,4-oxadiazole], the EC50 in assay [1] and in assay [2] was less than 1000 nM in each case.

For `FC(F)(F)c1ccc(-c2nnc(-c3ccccc3)o2)cc1` [Entry 43, 2-phenyl-5-(4-(trifluoromethyl)phenyl)-1,3,4-oxadiazole], the EC50 in assay [1] and in assay [2] was 1000 to 5000 nM each time.

For `FC(F)(F)c1ccc(-c2nnc(-c3ccco3)o2)cc1` [Entry 44, 2-(furan-2-yl)-5-(4-(trifluoromethyl)phenyl)-1,3,4-oxadiazole], the 50% effective concentration (EC50) in assay [1] and in assay [2] was 1000 to 5000 nM throughout.

For `Cc1ccc(-c2nnc(-c3ccc(C(F)(F)F)cc3)o2)o1` [Entry 45, 2-(5-methylfuran-2-yl)-5-(4-(trifluoromethyl)phenyl)-1,3,4-oxadiazole], the EC50 in assay [1] is 1000 to 5000 nM; in assay [2], greater than 5000 nM.

As to `FC(F)(F)c1ccc(-c2nnc(-c3cccs3)o2)cc1` [Entry 46, 2-(thiophen-2-yl)-5-(4-(trifluoromethyl)phenyl)-1,3,4-oxadiazole], the concentration for a half-maximal effect (EC50) in assay [1] and in assay [2] was 1000 to 5000 nM throughout.

With `FC(F)(F)c1ccc(-c2nnc(-c3ccnc4ccccc34)o2)cc1` [Entry 47, 2-(quinolin-4-yl)-5-(4-(trifluoromethyl)phenyl)-1,3,4-oxadiazole], the EC50 in assay [1] and in assay [2] was greater than 5000 nM throughout.

As for `FC(F)(F)c1ccc(-c2nnc(-c3ccc4ccccc4n3)o2)cc1` [Entry 48, 2-(quinolin-2-yl)-5-(4-(trifluoromethyl)phenyl)-1,3,4-oxadiazole], the “EC50 (ERRα) μM” value in assay [1] is on record as “i.a”. Also, in assay [2], the “EC50 (ERRγ) μM” value was “i.a”.

Consider `FC(F)(F)c1ccc(-c2nnc(-c3ccccn3)o2)cc1` [Entry 49, 2-(pyridin-2-yl)-5-(4-(trifluoromethyl)phenyl)-1,3,4-oxadiazole], for which the EC50 in assay [1] and in assay [2] was less than 1000 nM throughout.

Regarding `O=[N+]([O-])c1ccccc1-c1nnc(-c2ccc(C(F)(F)F)cc2)o1` [Entry 50, 2-(2-nitrophenyl)-5-(4-(trifluoromethyl)phenyl)-1,3,4-oxadiazole], the concentration giving a half-maximal response (EC50) in assay [1] and in assay [2] was 1000 to 5000 nM each time.

Turning to `O=[N+]([O-])c1cccc(-c2nnc(-c3ccc(C(F)(F)F)cc3)o2)c1` [Entry 51, 2-(3-nitrophenyl)-5-(4-(trifluoromethyl)phenyl)-1,3,4-oxadiazole], the “EC50 (ERRα) μM” value in assay [1] is recorded as “i.a”. Besides, the “EC50 (ERRγ) μM” value in assay [2] was “i.a”.

Regarding `O=[N+]([O-])c1ccc(-c2nnc(-c3ccc(C(F)(F)F)cc3)o2)cc1` [Entry 52, 2-(4-nitrophenyl)-5-(4-(trifluoromethyl)phenyl)-1,3,4-oxadiazole], the EC50 in assay [1] and in assay [2] was greater than 5000 nM each time.

As to `FC(F)(F)c1ccc(-c2nnc(-c3ccccc3Cl)o2)cc1` [Entry 53, 2-(2-chlorophenyl)-5-(4-(trifluoromethyl)phenyl)-1,3,4-oxadiazole], the EC50 in assay [1] is less than 1000 nM; in assay [2], 1000 to 5000 nM.

As to `COc1cccc(-c2nnc(-c3ccc(C(F)(F)F)cc3)o2)c1` [Entry 54, 2-(3-methoxyphenyl)-5-(4-(trifluoromethyl)phenyl)-1,3,4-oxadiazole], the 50% effective concentration (EC50) in assay [1] and in assay [2] was greater than 5000 nM throughout.

For `COc1ccc(-c2nnc(-c3ccc(C(F)(F)F)cc3)o2)cc1` [Entry 55, 2-(4-methoxyphenyl)-5-(4-(trifluoromethyl)phenyl)-1,3,4-oxadiazole], in assay [1], the “EC50 (ERRα) μM” value is on record as “i.a”. The “EC50 (ERRγ) μM” value in assay [2] was “i.a”.

Take `FC(F)(F)c1cccc(-c2nnc(-c3ccccc3)o2)c1` [Entry 56, 2-phenyl-5-(3-(trifluoromethyl)phenyl)-1,3,4-oxadiazole]: the EC50 in assay [1] and in assay [2] was less than 1000 nM each time.

For the compound `FC(F)(F)c1cccc(-c2nnc(-c3ccco3)o2)c1` [Entry 57, 2-(furan-2-yl)-5-(3-(trifluoromethyl)phenyl)-1,3,4-oxadiazole], the concentration for a half-maximal effect (EC50) in assay [1] was less than 1000 nM; in assay [2], 1000 to 5000 nM.

As for `FC(F)(F)c1cccc(-c2nnc(-c3cccs3)o2)c1` [Entry 58, 2-(thiophen-2-yl)-5-(3-(trifluoromethyl)phenyl)-1,3,4-oxadiazole], the EC50 in assay [1] and in assay [2] was less than 1000 nM each time.

Regarding `FC(F)(F)c1cccc(-c2nnc(-c3ccnc4ccccc34)o2)c1` [Entry 59, 2-(quinolin-4-yl)-5-(3-(trifluoromethyl)phenyl)-1,3,4-oxadiazole], the concentration giving a half-maximal response (EC50) in assay [1] was less than 1000 nM; in assay [2], 1000 to 5000 nM.

Regarding `FC(F)(F)c1cccc(-c2nnc(-c3ccc4ccccc4n3)o2)c1` [Entry 60, 2-(quinolin-2-yl)-5-(3-(trifluoromethyl)phenyl)-1,3,4-oxadiazole], the EC50 in assay [1] and in assay [2] was 1000 to 5000 nM in each case.

As for `FC(F)(F)c1cccc(-c2nnc(-c3ccccn3)o2)c1` [Entry 61, 2-(pyridin-2-yl)-5-(3-(trifluoromethyl)phenyl)-1,3,4-oxadiazole], the EC50 in assay [1] and in assay [2] was less than 1000 nM each time.

`O=[N+]([O-])c1ccccc1-c1nnc(-c2cccc(C(F)(F)F)c2)o1` [Entry 62, 2-(2-nitrophenyl)-5-(3-(trifluoromethyl)phenyl)-1,3,4-oxadiazole]: the EC50 in assay [1] and in assay [2] was 1000 to 5000 nM in each case.

Take `O=[N+]([O-])c1cccc(-c2nnc(-c3cccc(C(F)(F)F)c3)o2)c1` [Entry 63, 2-(3-nitrophenyl)-5-(3-(trifluoromethyl)phenyl)-1,3,4-oxadiazole]: the half-maximal effective concentration (EC50) is 1000 to 5000 nM in assay [1] and greater than 5000 nM in assay [2].

With `FC(F)(F)c1cccc(-c2nnc(-c3ccccc3Cl)o2)c1` [Entry 65, 2-(2-chlorophenyl)-5-(3-(trifluoromethyl)phenyl)-1,3,4-oxadiazole], the values for the EC50 in assay [1] and in assay [2] were 1000 to 5000 nM and greater than 5000 nM, respectively.

For the compound `COc1cccc(-c2nnc(-c3cccc(C(F)(F)F)c3)o2)c1` [Entry 66, 2-(3-methoxyphenyl)-5-(3-(trifluoromethyl)phenyl)-1,3,4-oxadiazole], the concentration for a half-maximal effect (EC50) in assay [1] and in assay [2] was 1000 to 5000 nM each time.

As to `Nc1ccccc1-c1nnc(-c2ccccc2)o1` [Entry 68, 2-(5-phenyl-1,3,4-oxadiazol-2-yl)aniline], the EC50 in assay [1] and in assay [2] was 1000 to 5000 nM each time.

With `Nc1cccc(-c2nnc(-c3ccccc3)o2)c1` [Entry 69, 3-(5-phenyl-1,3,4-oxadiazol-2-yl)aniline], the concentration giving a half-maximal response (EC50) in assay [1] and in assay [2] was less than 1000 nM in each case.

As to `Nc1ccc(-c2nnc(-c3ccccc3)o2)cc1` [Entry 70, 4-(5-phenyl-1,3,4-oxadiazol-2-yl)aniline], the concentration for a half-maximal effect (EC50) in assay [1] and in assay [2] was less than 1000 nM in each case.

As for `COc1ccc(-c2nnc(-c3ccccc3)o2)c(N)c1` [Entry 71, 5-methoxy-2-(5-phenyl-1,3,4-oxadiazol-2-yl)aniline], the concentration giving a half-maximal response (EC50) in assay [1] and in assay [2] was less than 1000 nM in each case.

As to `Nc1cc(Br)ccc1-c1nnc(-c2ccccc2)o1` [Entry 72, 5-bromo-2-(5-phenyl-1,3,4-oxadiazol-2-yl)aniline], the EC50 is less than 1000 nM in assay [1] and 1000 to 5000 nM in assay [2].

`COc1ccc(-c2nnc(-c3ccccc3N)o2)cc1` [Entry 74, 2-(5-(4-methoxyphenyl)-1,3,4-oxadiazol-2-yl)aniline]: the EC50 in assay [1] and in assay [2] was less than 1000 nM each time.
